Publication PMC9650711, “Hydroxyl-Rich Hydrophilic Endocytosis-Promoting Peptide with No Positive Charge” (Journal of the American Chemical Society, 2022)
Numbered stars: 1 amine (or outer) side, 2 acyl side, 3 side chain; on linkers, the order of the positions; unused ones are H or OH. Bridge positions count the residues as written; N and C are the ends. Square brackets hold non-standard residues; d marks the D form. Triazole bridges read from a SMILES are 1,4-linked. Peptide text beside a SMILES is read from it. * marks the point of attachment. RhodamineB = CCN(CC)c1ccc2c(-c3ccccc3C(=O)*)c3ccc(=[N+](CC)CC)cc-3oc2c1; Lys(N3) = [N-]=[N+]=NCCCC[C@H](N)C(=O)O; NMeGABA = CN(CCCC(=O)[*:2])[*:1]; Pra = C#CC[C@H](N)C(=O)O

Legend:
[1] = tested on: Caco2; assay: RB-EPP6 uptake in Caco2 cells; format: cell-based; conditions: RB conjugate
[2] = tested on: U87 cells; assay: Cell viability by YOYO staining, flow cytometry; format: cell-based, human; conditions: RB-EPP6 20 nM to 100 μM
Description: Confocal imaging experiments
To image the cells, a Zeiss 880 inverted confocal laser scanning microscope (Carl Zeiss, Germany) was used. Image acquisition and analyses were carried out using the manufacturer’s software (ZEN, Carl Zeiss). Quantification of fluorescence intensity in single cells was performed using Fiji […]
Flow cytometry experiments
To perform flow cytometry experiments, a NovoCyte flow cytometer (NovoExpress) was used.
Quantification of fluorescence intensity was achieved using the Novoxpress software. Fifty thousand cells were analyzed for each condition. A green fluorescent dye used for DNA staining, YOYO, was included in all the flow cytometry experiments, serving as a cell live/dead indicator.
[…]
2 μL of RB-EPP (in DMSO) was added to the solution at a concentration of 500 μM. […] Samples were collected from both phases and quantified by Analytical HPLC separately. […]

[3] = tested on: MDCK cell monolayers; format: in vitro ADME, canine
Description: FIBCD1 Lentiviral target, at different multiplicities of infection (MOI) levels. The cells were then incubated at 37 °C and 5% CO2. After 48 hours, the media was removed and replaced with fresh new media. Cell selection was carried out using G418 (Alfa Aesar) at 1 mg/mL for 7 days, and the surviving cells were collected and analyzed for FIBCD-KO efficiency by western blot. The best candidate was used for the RB-EPP6 uptake experiments described above.
200k MDCK cells were seeded in 200 μL of complete media in the apical side transwell insert (12-well 8 μm pore size Transwell-65 mm). In addition, 1 mL of complete growth media is added to the basolateral chamber. Six transwell inserts were prepared for a TAT peptide labeled with RB (RB-[…]), and six other inserts were prepared for RB-EPP6. The plate was incubated for 2-3 days at 37 °C with 5% CO2. The electrical resistance of the MDCK transwell inserts was measured using the EVOM Epithelial Voltohmmeter to monitor the integrity of tight junctions for the following two days. On day 3, serum-free media was used to wash both the apical (200 μL) and basolateral (1 mL) wells three times. […]
The assay was carried out in apical to basolateral directions. […] After that, 80 μL of the samples were collected from each chamber for RB fluorescence intensity reading using a Synergy […]

[4] = tested on: zebrafish larvae; assay: Biodistribution in zebrafish larvae, fluorescence microscopy; format: in vivo; conditions: larvae 6 dpf, 1 h incubation; compared with free rhodamine dye and RB-GSQTH control
[5] = target: T1, full-length FIBCD1 (Homo sapiens, UniProt Q8N539); assay: Fluorescence polarization (FP) assay; format: binding; conditions: RB conjugates 50 nM, 1% BSA/PBST, room temperature 30 min, Hill fit; recombinant full-length FIBCD1 from CHO cells
T1 construct: We overexpressed full-length FIBCD1 in CHO cells, extracted and purified the protein; host or cells: ExpiCHO (CHO) cells
T1 sequence (Q8N539 1-461): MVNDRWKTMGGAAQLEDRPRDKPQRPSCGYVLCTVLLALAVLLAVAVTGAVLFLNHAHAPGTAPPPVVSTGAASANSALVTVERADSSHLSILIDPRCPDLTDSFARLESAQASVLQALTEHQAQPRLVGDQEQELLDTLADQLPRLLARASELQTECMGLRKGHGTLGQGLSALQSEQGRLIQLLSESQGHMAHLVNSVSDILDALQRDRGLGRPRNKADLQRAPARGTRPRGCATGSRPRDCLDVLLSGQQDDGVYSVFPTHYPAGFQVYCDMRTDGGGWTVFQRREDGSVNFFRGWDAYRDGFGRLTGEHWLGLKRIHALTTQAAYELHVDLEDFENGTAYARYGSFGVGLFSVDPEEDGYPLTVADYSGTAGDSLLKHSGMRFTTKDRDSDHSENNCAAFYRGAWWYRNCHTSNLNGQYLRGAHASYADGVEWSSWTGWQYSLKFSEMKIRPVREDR
Description: experiment. Poly-A selective RNA-seq libraries were prepared using the NEB NextUltra II kit (New England Biolabs) and sequenced on an Illumina NextSeq500 with 2×75 pair-end reads. The obtained sequencing data was preprocessed using fastp, aligned using STAR, and counted using featureCounts. Differentially expressed genes were identified using DESeq2. The sequence data and analysis reports are deposited in the GEO repository (Accession # GSE202764) […]
U87 cells were incubated with 500 nM RB-EPP6 and YOYO, together with chondroitin sulfate (CSA) in complete media. After 1 h, trypsin was used to detach the cells. Cell pellets were collected by centrifugation. Fresh phenol-free medium was added to each condition. […]
Human FIBCD1 cDNA with an MYC-DDK tag was ordered from Origene (#RC206180) and was expressed using the mammalian expression system kit ExpiCHOTM (#A29133) as generally described by MAN0014337. […] The obtained full-length FIBCD1 was quantified using BCA.
Fluorescence polarization (FP) assay
Solutions of RB-EPPs (in 1% BSA/PBST) were added to different concentrations of full-length FIBCD1 (in 1% BSA/PBST). […] The solutions were incubated at room temperature for 30 minutes on an orbital shaker, and the fluorescence polarization values were quantified using a BioTek Synergy H1 plate reader, with an FP filter set (excitation 530/25, emission 590/35). […]

**Q.** What does the source list for `CCN(CC)c1ccc2c(-c3ccccc3C(=O)N(C)CCCC(=O)N[C@H]3Cc4cn(nn4)CCCC[C@@H](C(N)=O)NC(=O)[C@H](CO)NC(=O)[C@H](Cc4ccc(O)cc4)NC(=O)[C@H](Cc4ccc(O)cc4)NC(=O)[C@H](CO)NC(=O)[C@H](Cc4ccc(O)cc4)NC3=O)c3ccc(=[N+](CC)CC)cc-3oc2c1` [RB-EPP6, RB-cy(YSYYS)] (RhodamineB-[NMeGABA][Pra]YSYYS[Lys(N3)]-NH2; triazole 2-8)?
**A.** uptake in Caco2 cells [1]: did not exhibit EPP6 uptake; effect on cell viability [2]: without affecting cell viability; Papp [3]: 5.25 × 10^–6; Papp compared with RB-TAT47–57 [3]: more than twice; tissue accumulation in zebrafish larvae [4]: preferentially accumulated in the olfactory pit and neuromasts; Kd [5]: ~200 nM
